Where a name gives a salt, the structure may show the parent alone.
Columns and labels:
[1] = tested on: c-Kit1; assay: CD melting experiments, c-Kit1 GQ; assay type: binding; settings: 2 molar equiv compound, T1/2 of DNA alone 55.0 °C
From the text: (§1) The 21 synthesised MTDLs were screened for their ability to bind to and stabilise DNA GQ-forming sequences, compared to berberine, by CD experiments. Indeed, circular dichroism has shown to be outstandingly useful and informative for noncanonical nucleic acid secondary structures. For this purpose, a G-rich 23-nucleotide truncation (23-nt) of the human telomeric sequence (Tel23) and two G-rich motifs from the promoter regions of c-KIT (c-Kit1) and c-MYC (c-Myc) oncogenes were employed. First, the overall topology adopted by each DNA sequence in K^+-containing buffer was verified by CD spectra. […] GQ conformation (Figure S1, Supporting Information). On the other hand, c-Kit1 and c-Myc sequences adopted a parallel GQ conformation, showing a distinctive positive band at around 260 nm and a negative one at ∼240 nm in their CD spectra (Figures S2 and S3, Supporting Information).
(§2) Afterwards, the GQ-stabilising properties of the molecules were assessed by CD melting experiments, measuring the differences in the apparent melting temperatures of the DNA in the presence and absence of compounds (ΔT1/2) (Figures S4–S6 and Table S2, Supporting Information). […] This could be explained by considering the higher accessibility of the external G-tetrads in the case of parallel GQs compared to the hybrid one[52], which would allow the additional CAI moiety of conjugated compounds to be better accommodated in the binding site. […] . […] .

[2] = tested on: Tel23; assay: CD melting experiments, Tel23 GQ; assay type: binding, human; settings: 2 molar equiv compound, T1/2 of DNA alone 53.5 °C
From the text: as §1, §2

[3] = tested on: Hairpin; assay: CD melting experiments, hairpin DNA duplex; settings: 2 molar equiv compound, T1/2 of DNA alone 66.0 °C
Procedure: To evaluate the possible binding and stabilisation of double-stranded DNA, a 27-nt long hairpin-forming sequence (Hairpin) was employed.
In particular, the following DNA sequences were synthesised and employed for the experiments: d([sequence]) (c-Kit1), d([sequence]) (c-Myc), d([sequence]) (Tel23), and d([sequence]) (Hairpin). Oligonucleotides were dissolved in the proper buffer and their concentration was measured by UV absorption at 90 °C, as previously reported[80]^,[81]. To achieve the correct folding of the sequences, the DNA solutions were heated in a water bath at 90 °C for 5 min, and then allowed to cool slowly to room temperature overnight. Then, DNA samples were stored at 4 °C for 24 h, before data acquisition.
The samples were prepared by dissolving the oligonucleotides in 5 mM KH2PO4/K2HPO4 buffer (pH 7.0) containing 20 mM KCl (or LiCl in the case of c-Myc because of its high thermal stability). DNA concentrations of 20 µM for GQs and 30 µM for Hairpin were used. For each compound, a 10 mM stock solution in 100% DMSO was prepared. […] CD spectra were acquired at 20 and 100 °C, in the 230–320 nm wavelength range, averaged over three scans and subtracted of the buffer baseline. The scanning speed was set to 100 nm/min, with a 0.5 s response time, and 1 nm bandwidth. CD melting experiments were carried out in the 20–100 °C temperature range, with 1 °C/min heating rate, by following changes in the CD signal at the wavelengths of the maximum CD intensity (i.e. 263 nm for c-Kit1 and c-Myc, and 290 nm for Tel23). As for Hairpin, CD melting curves were recorded by following the changes in the CD signal at 252 nm (the wavelength of the minimum CD intensity). CD melting curves were normalised between 0 and 1. […] The ΔT1/2 values correspond to the difference in the T1/2 values of the nucleic acid structures in the presence and absence of the compounds. All experiments were performed in duplicate, and the reported values are the mean of the two measurements.

[4] = tested on: HeLa cells; assay: MTT assay, HeLa cells in normoxia; assay type: cell-based; settings: 48 h
From the text: Combining the results on carbonic anhydrase inhibition and GQ thermal stabilisation, we selected the sulphonamides S-2,0, S-4,0, S-5,0 and the coumarins C-3,2, C-4,2, C-5,2 as the most promising MTDLs to be further investigated, since able to both efficiently suppress the activity of the hCAs IX/XII and stabilise GQ structures, in vitro. Moreover, given that crystals suitable for X-ray diffraction analyses had been successfully obtained for the human telomeric DNA GQ in complex with S-3,2, we also included such sulphonamide derivative in the subsequent studies. Thus, we assessed the cytotoxicity of the selected MTDLs on CA IX-positive HeLa cells, using the MTT assay.
HeLa cells were grown in Dulbecco’s Modified Eagle’s Medium supplemented with 10% FBS, 100 U/mL penicillin, and 100 μg/mL streptomycin, at 37 °C, in a 5% CO2/95% air atmosphere. Cells were sub-cultured at 90% confluence, in the split ratio 1:8, every 3–5 days. The MTDLs used in this study, as well as the CAIs S and C, were dissolved in DMSO at 40 mM (for the sulphonamides) or 10 mM (for the coumarins) concentration. As for berberine, a 50 mM stock solution in DMSO was prepared. Each tested compound was diluted in cell culture medium to the required concentration, immediately prior to use. As regards the experiments under hypoxic conditions, an 80 mM stock solution of CoCl2 was prepared in sterile distilled water and further diluted in medium to obtain the final desired concentrations.
For the MTT experiments in the presence of normal oxygen levels, HeLa cells were seeded in 96-well plates at a density of 15,000 cells per well (culture medium volume – 100 μL/well) and incubated at 37 °C, for 24 h. The medium was then removed, and HeLa were incubated, for 48 h, with fresh medium containing increasing concentrations of MTDLs, single-target-directed agents (berberine, S, and C) or vehicle (0.5% DMSO). The MTDL C-4,2 was also tested for 12 h. As for the co-treatments, cells were co-treated for 12 h with equimolar concentrations of berberine and C. As regards the MTT experiments under hypoxic conditions, HeLa cells were seeded in 96-well plates (8,000 cells per well) and incubated overnight, pre-treated with 50 μM cobalt (II) chloride hexahydrate (CoCl2) and then, for the following 12 h, either exposed to increasing concentrations of C-4,2 or vehicle (0.5% DMSO), or co-treated with equimolar concentrations of berberine and C. Each condition was assayed in triplicate. At the end of the treatments, 10 µL of MTT reagent were added to each well, at a final concentration of 0.5 mg/mL, and the plates were incubated at 37 °C for 4 h. To dissolve the resulting purple formazan crystals, 100 μL of the solubilisation solution were added into each well and the plates were allowed to stand overnight in the incubator (37 °C, 5% CO2/95% air). Finally, the optical density of the samples (at 570 nm) was measured on an ELx800 Absorbance Microplate Reader (BioTek Instruments, Inc., Winooski, VT, USA). The percentage (%) of cell survival for each condition was calculated by using the following equation: % cell survival=OD− OD0/ODCONTROL− OD0×100 where OD is the optical density of the sample, OD0 is the optical density of the background signal, and ODCONTROL is the optical density of the control sample (cells treated with vehicle, 0.5% DMSO). The concentration able to reduce by 50% the cellular viability (IC50) was calculated, for each investigated compound, using Prism 8.0.2 (GraphPad, San Diego, CA, USA) and plotting the percentage of cell survival versus the compound concentration (µM).

[5] = tested on: c-Myc; assay: CD melting experiments, c-Myc GQ; assay type: binding; settings: 1 molar equiv compound, T1/2 of DNA alone 70.0 °C
From the text: as §1, §2

Row | SMILES | melting point | other results
1 | COc1ccc2cc3[n+](cc2c1OCCn1cc(-c2ccc(S(N)(=O)=O)cc2)nn1)CCc1cc2c(cc1-3)OCO2 (as salt: phosphate) [Compound 26, 10-Methoxy-9–(2-(4–(4-sulfamoylphenyl)-1H-1,2,3-triazol-1-yl)ethoxy)-5,6-dihydro-[1,3]dioxolo[4,5-g]isoquinolino[3,2-a]isoquinolin-7-ium hexafluorophosphate] | 212 to 215 °C | 
2 | COc1ccc2cc3[n+](cc2c1OCCn1cc(COc2ccc(S(N)(=O)=O)cc2)nn1)CCc1cc2c(cc1-3)OCO2 (as salt: phosphate) [Compound 27, 10-Methoxy-9–(2-(4-((4-sulfamoylphenoxy)methyl)-1H-1,2,3-triazol-1-yl)ethoxy)-5,6-dihydro-[1,3]dioxolo[4,5-g]isoquinolino[3,2-a]isoquinolin-7-ium hexafluorophosphate] | 183 to 185 °C | 
3 | COc1ccc2cc3[n+](cc2c1OCCCn1cc(-c2ccc(S(N)(=O)=O)cc2)nn1)CCc1cc2c(cc1-3)OCO2 (as salt: phosphate) [Compound 28, 10-Methoxy-9–(3-(4–(4-sulfamoylphenyl)-1H-1,2,3-triazol-1-yl)propoxy)-5,6-dihydro-[1,3]dioxolo[4,5-g]isoquinolino[3,2-a]isoquinolin-7-ium hexafluorophosphate] | 205 to 208 °C | 
4 | COc1ccc2cc3[n+](cc2c1OCCCn1cc(COc2ccc(S(N)(=O)=O)cc2)nn1)CCc1cc2c(cc1-3)OCO2 (as salt: phosphate) [Compound 29, 10-Methoxy-9–(3-(4-((4-sulfamoylphenoxy)methyl)-1H-1,2,3-triazol-1-yl)propoxy)-5,6-dihydro-[1,3]dioxolo[4,5-g]isoquinolino[3,2-a]isoquinolin-7-ium hexafluorophosphate] | 120 to 122 °C | 
5 | COc1ccc2cc3[n+](cc2c1OCCCCn1cc(COc2ccc(S(N)(=O)=O)cc2)nn1)CCc1cc2c(cc1-3)OCO2 (as salt: phosphate) [Compound 31, 10-Methoxy-9–(4-(4-((4-sulfamoylphenoxy)methyl)-1H-1,2,3-triazol-1-yl)butoxy)-5,6-dihydro-[1,3]dioxolo[4,5-g]isoquinolino[3,2-a]isoquinolin-7-ium hexafluorophosphate] | 165 to 168 °C | 
6 | COc1ccc2cc3[n+](cc2c1OCCCCCn1cc(-c2ccc(S(N)(=O)=O)cc2)nn1)CCc1cc2c(cc1-3)OCO2 (as salt: phosphate) [Compound 32, 10-Methoxy-9-((5–(4-(4-sulfamoylphenyl)-1H-1,2,3-triazol-1-yl)pentyl)oxy)-5,6-dihydro-[1,3]dioxolo[4,5-g]isoquinolino[3,2-a]isoquinolin-7-ium hexafluorophosphate] | 200 to 202 °C | 
7 | COc1ccc2cc3[n+](cc2c1OCCCCCn1cc(COc2ccc(S(N)(=O)=O)cc2)nn1)CCc1cc2c(cc1-3)OCO2 (as salt: phosphate) [Compound 33, 10-Methoxy-9-((5–(4-((4-sulfamoylphenoxy)methyl)-1H-1,2,3-triazol-1-yl)pentyl)oxy)-5,6-dihydro-[1,3]dioxolo[4,5-g]isoquinolino[3,2-a]isoquinolin-7-ium hexafluorophosphate] | 168 to 171 °C | 
8 | COc1ccc2cc3[n+](cc2c1OCCCn1cc(COc2ccc4ccc(=O)oc4c2)nn1)CCc1cc2c(cc1-3)OCO2 (as salt: phosphate) [Compound 34, 10-Methoxy-9–(3-(4-(((2-oxo-2H-chromen-7-yl)oxy)methyl)-1H-1,2,3-triazol-1-yl)propoxy)-5,6-dihydro-[1,3]dioxolo[4,5-g]isoquinolino[3,2-a]isoquinolin-7-ium hexafluorophosphate] | 140 °C | 
9 | COc1ccc2cc3[n+](cc2c1OCCCn1cc(CCOc2ccc4ccc(=O)oc4c2)nn1)CCc1cc2c(cc1-3)OCO2 (as salt: phosphate) [Compound 35, 10-Methoxy-9–(3-(4–(2-((2-oxo-2H-chromen-7-yl)oxy)ethyl)-1H-1,2,3-triazol-1-yl)propoxy)-5,6-dihydro-[1,3]dioxolo[4,5-g]isoquinolino[3,2-a]isoquinolin-7-ium hexafluorophosphate] | 130 to 131 °C | 
10 | COc1ccc2cc3[n+](cc2c1OCCCCn1cc(CCOc2ccc4ccc(=O)oc4c2)nn1)CCc1cc2c(cc1-3)OCO2 (as salt: phosphate) [Compound 38, 10-Methoxy-9–(4-(4–(2-((2-oxo-2H-chromen-7-yl)oxy)ethyl)-1H-1,2,3-triazol-1-yl)butoxy)-5,6-dihydro-[1,3]dioxolo[4,5-g]isoquinolino[3,2-a]isoquinolin-7-ium hexafluorophosphate] | 185 to 186 °C | 
11 | COc1ccc2cc3[n+](cc2c1OCc1cn(-c2cccc(S(N)(=O)=O)c2)nn1)CCc1cc2c(cc1-3)OCO2 (as salt: phosphate) [Compound 40, 10-Methoxy-9-((1–(3-sulfamoylphenyl)-1H-1,2,3-triazol-4-yl)methoxy)-5,6-dihydro-[1,3]dioxolo[4,5-g]isoquinolino[3,2-a]isoquinolin-7-ium hexafluorophosphate] | 195 to 198 °C | 
12 | COc1ccc2cc3[n+](cc2c1OCc1cn(CCCOc2ccc4ccc(=O)oc4c2)nn1)CCc1cc2c(cc1-3)OCO2 (as salt: phosphate) [Compound 42, 10-Methoxy-9-((1–(3-((2-oxo-2H-chromen-7-yl)oxy)propyl)-1H-1,2,3-triazol-4-yl)methoxy)-5,6-dihydro-[1,3]dioxolo[4,5-g]isoquinolino[3,2-a]isoquinolin-7-ium hexafluorophosphate] | 117 to 118 °C | 
13 | COc1ccc2cc3[n+](cc2c1OCc1cn(CCCCOc2ccc4ccc(=O)oc4c2)nn1)CCc1cc2c(cc1-3)OCO2 (as salt: phosphate) [Compound 43, 10-Methoxy-9-((1–(4-((2-oxo-2H-chromen-7-yl)oxy)butyl)-1H-1,2,3-triazol-4-yl)methoxy)-5,6-dihydro-[1,3]dioxolo[4,5-g]isoquinolino[3,2-a]isoquinolin-7-ium hexafluorophosphate] | 124 to 125 °C | 
14 | COc1ccc2cc3[n+](cc2c1OC)CCc1cc2c(cc1-3)OCO2 [Berberine, berberine, reference compound] |  | ΔT1/2 c-Kit1 [1]: 13.0 °C; ΔT1/2 Tel23 [2]: 9.5 °C; ΔT1/2 Hairpin [3]: +0.2 °C; effect on HeLa cell viability (in words) ([4]; increasing concentrations): good dose-dependent cytotoxic effect; IC50 ([4]; Homo sapiens, normoxia, read-out: IC50 (50% of cell viability reduction), MTT assay): 75 µM; ΔT1/2 c-Myc [5]: 12.0 °C

From article PMC11195807, “Development of a multi-targeted chemotherapeutic approach based on G-quadruplex stabilisation and carbonic anhydrase inhibition” (Journal of Enzyme Inhibition and Medicinal Chemistry, 2024)
